Tests used:
Experiment in all cases: relative viability (nuclei count vs DMSO), 5 days (fraction); higher = more cells survive
AGI-6780 + Dasatinib = compound: O=C(Nc1cccc(C(F)(F)F)c1)Nc1cc(S(=O)(=O)NC2CC2)ccc1-c1ccsc1 [AGI-6780] + Cc1nc(Nc2ncc(C(=O)Nc3c(C)cccc3Cl)s2)cc(N2CCN(CCO)CC2)n1 [Dasatinib] (partner 0.075 µM)
Outline: (§1)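 Lung cancer cell lines, seeded in 1536-well plates, were treated the following day by pin tool with a single drug or with five library-drug doses (not always all listed) in √10 steps on top of a fixed anchor-drug dose. Cells were fixed and nuclei stained in one step after 5 days, and nuclei were counted. Relative viability is the nuclei count for treated wells divided by that for vehicle wells, reported as medians of duplicate plates.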

AGI-6780 + Navitoclax = compound: O=C(Nc1cccc(C(F)(F)F)c1)Nc1cc(S(=O)(=O)NC2CC2)ccc1-c1ccsc1 [AGI-6780] + CC1(C)CCC(c2ccc(Cl)cc2)=C(CN2CCN(c3ccc(C(=O)NS(=O)(=O)c4ccc(N[C@H](CCN5CCOCC5)CSc5ccccc5)c(S(=O)(=O)C(F)(F)F)c4)cc3)CC2)C1 [Navitoclax] (partner 0.5 µM)
Outline: as §1

AGI-6780 + Bortezomib = compound: O=C(Nc1cccc(C(F)(F)F)c1)Nc1cc(S(=O)(=O)NC2CC2)ccc1-c1ccsc1 [AGI-6780] + CC(C)C[C@H](NC(=O)[C@H](Cc1ccccc1)NC(=O)c1cnccn1)B(O)O [Bortezomib] (partner 0.002 µM)
Outline: as §1

AGI-6780 + Luminespib = compound: O=C(Nc1cccc(C(F)(F)F)c1)Nc1cc(S(=O)(=O)NC2CC2)ccc1-c1ccsc1 [AGI-6780] + CCNC(=O)c1noc(-c2cc(C(C)C)c(O)cc2O)c1-c1ccc(CN2CCOCC2)cc1 [Luminespib] (partner 0.01 µM)
Outline: as §1

Cell Line	relative viability (AGI-6780 + Dasatinib; first compound 0.08 µM)	relative viability (AGI-6780 + Dasatinib; first compound 0.253 µM)	relative viability (AGI-6780 + Dasatinib; first compound 0.8 µM)	relative viability (AGI-6780 + Dasatinib; first compound 2.53 µM)	relative viability (AGI-6780 + Dasatinib; first compound 8 µM)	relative viability (AGI-6780 + Navitoclax; first compound 0.08 µM)	relative viability (AGI-6780 + Navitoclax; first compound 0.253 µM)	relative viability (AGI-6780 + Navitoclax; first compound 0.8 µM)	relative viability (AGI-6780 + Navitoclax; first compound 2.53 µM)	relative viability (AGI-6780 + Navitoclax; first compound 8 µM)	relative viability (AGI-6780 + Bortezomib; first compound 0.08 µM)	relative viability (AGI-6780 + Bortezomib; first compound 0.253 µM)	relative viability (AGI-6780 + Bortezomib; first compound 0.8 µM)	relative viability (AGI-6780 + Bortezomib; first compound 2.53 µM)	relative viability (AGI-6780 + Bortezomib; first compound 8 µM)	relative viability (AGI-6780 + Luminespib; first compound 0.08 µM)	relative viability (AGI-6780 + Luminespib; first compound 0.253 µM)	relative viability (AGI-6780 + Luminespib; first compound 0.8 µM)	relative viability (AGI-6780 + Luminespib; first compound 2.53 µM)	relative viability (AGI-6780 + Luminespib; first compound 8 µM)
HCC-366	0.678	0.608	0.684	0.245	0.556	1.03	1.12	0.984	0.944	1.05	1.1	1.06	1.03	1.02	1.11	–	–	–	–	–
HCC-827	0.363	0.23	0.337	0.273	0.293	1.09	1.06	1	1.01	0.935	0.927	1.1	0.996	1.12	1.15	0.584	0.586	0.707	0.467	0.454
HOP-62	0.713	0.642	0.633	0.634	0.63	0.974	1.01	1.13	1.11	1.19	0.496	0.818	0.737	1.02	0.763	0.963	0.983	0.925	1	0.95
LC-2-ad	0.604	0.573	0.677	0.482	0.515	0.552	0.468	0.505	0.249	0.659	1.02	1.05	0.994	1.04	1.01	1	0.915	1.11	1.05	0.921
LCLC-97TM1	0.881	0.887	0.868	0.654	0.817	0.503	0.702	0.642	–	0.431	0.867	0.78	0.871	0.528	0.68	0.814	0.703	0.876	0.71	0.714
LCLC-103H	0.462	0.565	0.51	0.318	0.503	–	–	–	–	–	1.11	1.17	1.02	0.939	1.18	1.07	0.896	0.986	0.971	0.963
LK-2	0.242	0.298	0.286	–	0.315	0.891	0.844	1.01	–	1.11	–	–	–	–	–	0.189	0.169	0.183	–	0.202
LOU-NH91	0.533	0.516	0.553	0.531	0.558	0.718	0.735	0.698	0.575	0.775	0.475	0.597	0.472	0.605	0.512	0.411	0.337	0.436	0.328	0.305
LU99A	0.52	0.58	0.689	0.401	0.629	0.786	0.842	0.823	0.741	0.809	1.11	1.04	0.99	0.92	1.26	0.229	0.258	0.235	0.223	0.277

Source: the supplement of paper PMC10307832
